Experimental data as given in patent US5461057A, “Hydro-ethano-indeno-pyridines” (priority 1994, dated 1995).
Structures can show the parent of a compound that is named as a salt. Where two headings read alike, the source gives them in different places.

Assays:
pulmonary resistance = assay: Pulmonary Resistance in the Anesthetized Rat; assay type: in vivo; settings: Rattus norvegicus, iv; 0.5 mpk, i.v.; mean of 5 animals; % decrease in pre-drug baseline resistance; read-out: Pulmonary Resistance in Rats, % Inhibition
Description: Rats (400-500 g) anesthetized with dialurethane were surgically prepared with tracheal and esophageal catheters. These catheters were connected to pressure transducers for recording of air flow, tracheal and esophageal pressures. These pressures formed the basis for measurement of pulmonary resistance. Inhibition of pulmonary resistance is a reflection of bronchodilation.
All compounds were tested i. v. in 5 separate animals. All data are expressed in % decrease in the pre-drug baseline resistance and each number given is the mean of the 5 animals tested.
The model is sensitive to bronchodilator activity.
Further information relating this test can be obtained from the following publications which are hereby incorporated by reference: Comroe et al, J. Appl. Physio. 4:439-44 (1959); Dungan et al J. Pharmacol. Exp. Therap. 164:290-301(1968); and Mead, J. et al. J. Appl. Physio. 5:779-796 (1953).

[1] = tested on: LOX human melanoma cell adhesion to human fibronectin; assay: LOX melanoma cell adhesion to fibronectin; assay type: cell-based; settings: Homo sapiens, LOX; for inhibition at 10 µM: read-out: % Inhibition at 10 μM; for inhibition at 50 µM: read-out: % Inhibition at 50 μM; for IC50: Table 4, 1 hour adhesion, read-out: LOX FN IC50
Description: (§1) Adhesion assays were run essentially as described previously (Pai et al., J. Biomed. Res. 2: 53, 1992). 96-well plates were coated with human fibronectin (140 ng/well), human vitronectin (75 ng/well), human collagen I (100 ng/well), human collagen IV (100 ng/well), human fibrinogen (1 μg/well), murine laminin (600 ng/well), or polylysine, and incubated overnight in a humidified 37° C. incubator. Excess fibronectin or other substrate was then removed and 0.2 ml of 2 mg/ml bovine serum albumin (BSA)in Dulbecco's phosphate-buffered saline (DPBS) was added to each well, incubated for 2 hours at 37° C., and removed. LOX human melanoma cells, M27 murine lung carcinoma cells or B16F10 mouse melanoma cells were detached from tissue culture flasks with RPMI medium containing 0.2M urea and 10 mM EDTA, and 0.18 ml of cells were added to each well to a final cell concentration of 1×10^5 cells/well. For inhibition studies 20 μl of 10× compound was added to the wells prior to cell addition. Cells were allowed to adhere for 1 hour at 37° C. The wells were then gently washed twice with 0.2 ml DPBS. The fluorescent dye calcein AM (Molecular Probes, Eugene Oreg.) in DPBS (0.1 ml of 1 μM) was added to each well, and the plates were incubated for 1 hour at room temperature. Adherent cells were quantitated by reading the fluorescence on a Cytofluor 2300 fluorescent plate reader (Millipore) at 485 nm excitation and 530 nm emission.
LOX FN-IC50 value for inhibition of adhesion of LOX human melanoma cells to fibronectin coated on a plastic surface.

[2] = tested on: histamine-induced dyspnea; assay: Bronchodilator (in vivo) Guinea Pig Dyspnea; settings: oral, one hour before histamine challenge; for responders at 100 mg/kg / DYSP survivors: 100 mg/kg
Description: Unanesthetized guinea pigs (250-350 g), fasted overnight were placed in individual closed aerosol chambers which were connected to a Monoghan Ultrasonic nebulizer. The nebulizer can deliver an ultrasonic fog of uniform particles in a range of 1-8 microns. A 0.1% solution of histamine is aerosolized into the chambers causing the guinea pigs to develop dyspnea. The test drug was given orally one hour before the histamine challenge and the onset of dyspnea was recorded. Saline control animals developed dyspnea within 90-120 seconds of aerosol exposure. […] The data was expressed as the number tested over the number survived. The model was sensitive to bronchodilator and H1 antihistamine activity. Further information relating this test can be obtained from the following two publications which are hereby incorporated by reference: Dungan, K. W. and Lish, P. M. J Allergy 32:139-151 (1961). and Lish, P. M., Robbins, S. I. and Petres E. L. J. Pharmacol. Exp. Therap. 153 L 1538 (1966 ).

[3] = Calcein cytotoxicity assay; assay type: cell-based; settings: human, lox melanoma cells; 2 hours, calcein AM assay; read-out: 2 Hr Tox LD50
Description: LOX human melanoma cells were detached from tissue culture flasks with RPMI medium containing 0.2M urea and 10 mM EDTA, and 0.18 ml of cells were added to each well to a final cell concentration of 5×10^4 cells/well. 20 μl of 10× compound was added to the wells prior to cell addition. Cells were incubated with the compound at 37° C. for 1 hour or 5 hour as indicated. Calcein AM in DPBS (0.02 ml of 5 μM) was added to each well, and the plates were incubated for an additional 1 hour at room temperature. Viable cells were quantitated by reading the fluorescence on a Cytofluor 2300 fluorescent plate reader at 485 nm excitation and 530 nm emission.

[4] = tested on: LOX human melanoma cell adhesion to polylysine; assay: LOX melanoma cell adhesion to polylysine; assay type: cell-based; settings: read-out: Poly Lys IC50
Description: as §1

[5] = Cavia porcellus, 1 h, read-out: DYSP survivors (converted)

Structure (SMILES)	inhibition in vivo at 0.5 mg/kg (pulmonary resistance) [%]	inhibition at 10 µM [1] [%]	inhibition at 50 µM [1] [%]	responders at 50 mg/kg [2, 5] [%]	responders at 100 mg/kg [2, 5] [%]	inhibition at 10 µM ([1]; 1 h) [%]	responders at 10 mg/kg ([2]; Cavia porcellus, 1 h, 10 mg/kg, read-out: DYSP survivors (converted)) [%]	responders at 20 mg/kg ([2]; Cavia porcellus, 1 h, 20 mg/kg, read-out: DYSP survivors (converted)) [%]	IC50 [1] [µM]	CC50 at 2 h [3] [µM]	IC50 [4] [µM]	DYSP survivors [2]
CN1C2CCC1C1c3ccccc3C(O)(c3cccc(Cl)c3)C1C2 (stereo not drawn) [QQ]	-30	9.2	21.1	33.3	–	–	–	–	–	–	–	–
CN1C2CCC1C1c3ccccc3C(O)(c3cccc(F)c3)C1C2 (stereo not drawn) [RR]	28	13.8	17.6	0	66.7	–	–	–	–	–	–	–
CN1C2CCC1C1=C(C2)C(c2ccccc2)c2cc(O)ccc21 (stereo not drawn) [BB]	–	–	6.5	–	–	-38.2	–	–	–	–	–	–
COc1ccc(C2(O)c3cc(Cl)ccc3C3C4CCC(CC32)N4C)cc1 (stereo not drawn) [XX, 7-Chloro-5-(p-methoxyphenyl)-2-methyl-1,3-ethano-1,2,3,4,4a,9b-hexahydro-5H-indeno[1,2-c]pyridin-5-ol]	–	-23.1	8.1	100	100	–	66.7	66.7	–	–	–	–
CN1C2CCC1C1C(=C(c3cccc(Cl)c3)c3ccccc31)C2 (stereo not drawn) [D]	–	56.5	101	–	–	–	–	–	7.4	34.6	71.9	1/3
CN1C2CCC1C1C(=C(c3cccc(F)c3)c3cc(F)ccc31)C2 (stereo not drawn) [Compound G]	–	38.1	101	–	–	–	–	–	5.3	29.5	63	1/3
CN1C2CCC1C1c3ccccc3C(O)(c3ccc4c(c3)OCO4)C1C2 (stereo not drawn) [WW]	39	1.2	11.9	–	–	–	–	–	–	–	–	–
CN1C2CCC1C1C(=C(c3ccccc3)c3cc(F)ccc31)C2 (stereo not drawn) [I]	–	35.6	100	–	–	–	–	–	7.6	55.9	22.8	1/3
COc1ccc(C2c3ccccc3C3C2CC2CCC3N2C)cc1 (stereo not drawn) [GG]	–	7.1	39.1	–	–	–	–	–	–	–	–	2/3
COc1ccc(C2(O)c3ccc(Cl)cc3C3C4CCC(CC32)N4C)cc1 (stereo not drawn) [ZZ]	–	-9.7	7	–	33.3	–	–	–	–	–	–	–
CN1C2CCC1C1C(=C(c3cccc(C(F)(F)F)c3)c3ccccc31)C2 (stereo not drawn) [L, 1 (SR):3(RS)-1,3-Ethano-2-methyl-5-(m-trifluoromethylphenyl)-1,3,4,9b-tetrahydro-H-indeno[1,2-c] pyridine. HCl 0.75H2 O.]	14	23.7	100	–	100	–	–	–	20	29.7	80.4	–
CSc1ccc(C2(O)c3ccccc3C3C4CCC(CC32)N4C)cc1 (stereo not drawn) [KK]	–	7.2	32.8	0	–	–	–	–	–	–	–	–
Cc1ccc(C2(O)c3ccccc3C3C4CCC(CC32)N4C)cc1 (stereo not drawn) [OO]	-18	6.6	23.7	–	33.3	–	–	–	–	–	–	–
CN1C2CCC1C1=C(C2)C(c2cccs2)c2ccccc21 (stereo not drawn) [GGG]	–	-27.6	64.4	–	–	–	–	–	–	–	–	–
